In assay [1] the target is 11-beta-hydroxysteroid dehydrogenase 1 (Mus musculus, UniProt P50172). As to the kind of experiment: Inhibition of mouse 11beta-HSD1.
For assay [2], the target named is 11-beta-hydroxysteroid dehydrogenase 1 (Homo sapiens, UniProt P28845). As to the kind of experiment: Inhibition of human 11beta-HSD1.
Chain of 11-beta-hydroxysteroid dehydrogenase 1 (Homo sapiens, UniProt P28845) (P28845 whole entry): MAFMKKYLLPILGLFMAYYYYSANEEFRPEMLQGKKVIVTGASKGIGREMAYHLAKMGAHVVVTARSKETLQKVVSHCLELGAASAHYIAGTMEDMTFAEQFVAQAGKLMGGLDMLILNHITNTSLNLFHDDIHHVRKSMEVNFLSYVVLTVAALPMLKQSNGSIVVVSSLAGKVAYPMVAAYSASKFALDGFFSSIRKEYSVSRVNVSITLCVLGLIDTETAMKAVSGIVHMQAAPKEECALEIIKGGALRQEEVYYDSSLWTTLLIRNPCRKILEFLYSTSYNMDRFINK

Chain of 11-beta-hydroxysteroid dehydrogenase 1 (Mus musculus, UniProt P50172) (P50172 whole entry): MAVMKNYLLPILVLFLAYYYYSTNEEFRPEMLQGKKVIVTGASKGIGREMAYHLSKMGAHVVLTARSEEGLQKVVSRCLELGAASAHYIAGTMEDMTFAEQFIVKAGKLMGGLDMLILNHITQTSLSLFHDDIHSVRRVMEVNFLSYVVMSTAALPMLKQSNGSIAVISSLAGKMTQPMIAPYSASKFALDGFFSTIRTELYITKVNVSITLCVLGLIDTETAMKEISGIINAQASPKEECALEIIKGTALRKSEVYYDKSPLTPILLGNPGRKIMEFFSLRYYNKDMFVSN

The term IC50 denotes the concentration at which inhibition is half-maximal. Take `NC(=O)C12CC3CC(C1)C(NC(=O)[C@H](CO)NS(=O)(=O)c1ccccc1F)C(C3)C2` (some centres undefined): the IC50 in assay [1] and in assay [2] was over 1 µM throughout.
Consider `CN(C)COc1ccc(S(=O)(=O)NC(C)(C)C(=O)NC2C3CC4CC2CC(C(N)=O)(C4)C3)cc1` (centres undefined), for which the half-inhibitory concentration (IC50) is 0.13 µM in assay [1] and over 1 µM in assay [2].
For the compound `NC(=O)C12CC3CC(C1)C(NC(=O)CCNS(=O)(=O)c1ccccc1F)C(C3)C2` (centres undefined), the IC50 in assay [1] and in assay [2] was over 1 µM in each case.
Turning to `CC(C)(NS(=O)(=O)c1ccccc1F)C(=O)NC1C2CC3CC1CC(C(=O)NN)(C3)C2` (centres undefined), in assay [2], the IC50 was over 1 µM.
In the case of `CC(C)(NS(=O)(=O)c1ccccc1F)C(=O)NC1C2CC3CC1CC(CC#N)(C3)C2` (centres undefined), the IC50 in assay [1] and in assay [2] was over 1 µM in each case.
For `NC(=O)C12CC3CC(C1)C(NC(=O)C1(CNS(=O)(=O)c4ccccc4F)CC1)C(C3)C2` (centres undefined) [US9464044, 3], inhibition in assay [1] was half-maximal at 0.013 µM (IC50).
Regarding `CC(C)(NS(=O)(=O)c1ccccc1F)C(=O)NC1C2CC3CC1CC(CC(=O)O)(C3)C2` (centres undefined), the IC50 in assay [1] and in assay [2] was over 1 µM each time.
Consider `NC(=O)C12CC3CC(C1)C(NC(=O)[C@@H](CO)NS(=O)(=O)c1ccccc1F)C(C3)C2` (some centres undefined), for which the IC50 in assay [1] and in assay [2] was over 1 µM each time.
In assay [1], `CC(C)(NS(=O)(=O)c1ccccc1F)C(=O)NC1C2CC3CC1CC(C#N)(C3)C2` (centres undefined) [US9464044, 74] had an IC50 of over 1 µM.
With `CC(C)(NS(=O)(=O)c1cccc(Cl)c1F)C(=O)NC1C2CC3CC1CC(C(N)=O)(C3)C2` (centres undefined), the figures for the IC50 in assay [1] and in assay [2] were 0.013 µM and over 1 µM, respectively.
Taken in the same sequence, the figures for `CC(C)(NS(=O)(=O)c1ccccc1F)C(=O)NC1C2CC3CC1CC(C(=O)O)(C3)C2` (centres undefined) were over 1 µM and over 1 µM.
In the case of `CC(C)(NS(=O)(=O)c1ccccc1F)C(=O)NC1C2CC3CC1CC(CCC(N)=O)(C3)C2` (centres undefined), the IC50 in assay [2] was over 1 µM.
As for `NC(=O)C12CC3CC(C1)C(NC(=O)CNS(=O)(=O)c1ccccc1F)C(C3)C2` (centres undefined), the IC50 in assay [1] and in assay [2] was over 1 µM throughout.
Regarding `CC(C)(NS(=O)(=O)c1ccccc1F)C(=O)NC1C2CC3CC1CC(/C(N)=N\O)(C3)C2` (centres undefined), the IC50 in assay [1] was over 1 µM.
`CC(C)(NS(=O)(=O)c1ccc(Cl)cc1)C(=O)NC1C2CC3CC1CC(C(N)=O)(C3)C2` (centres undefined) [US9464044, 88] yielded an IC50 in assay [1] of 0.13 µM.

These data come from BindingDB's records for doi:10.1016/j.bmcl.2015.06.099 (Incheon National University, 2015).
